Measured values: paper PMC10342010, “Djakonoviosides A, A1, A2, B1–B4 — Triterpene Monosulfated Tetra- and Pentaosides from the Sea Cucumber Cucumaria djakonovi: The First Finding of a Hemiketal Fragment in the Aglycones; Activity against Human Breast Cancer Cell Lines” (International Journal of Molecular Sciences, 2023)
Where two headings read alike, the source gives them in different places.

Legend:
[1] = test system: human erythrocytes; test: Hemolytic activity; type: cell-based; conditions: 1 h incubation at 37 °C, 50% hemolysis
Experimental: Erythrocytes were obtained from human blood (AB(IV) Rh+) by centrifugation with phosphate-buffered saline (PBS) (pH 7.4) at 4 °C for 5 min by 450 g on a LABOFUGE 400R centrifuge (Heraeus, Hanau, Germany) three times. Then, the erythrocytes residue was resuspended in ice cold phosphate saline buffer (pH 7.4) to a final optical density of 1.5 at 700 nm and kept on ice. For the hemolytic assay, 180 µL of erythrocyte suspension was mixed with 20 µL of test compound solution, as well as control, chitonoidoside L [33], in V-bottom 96-well plates. After 1 h of incubation at 37 °C, the plates were exposed to centrifugation for 10 min at 900 g in a laboratory LMC-3000 centrifuge (Biosan, Riga, Latvia). Then, 100 µL of supernatant was carefully decanted and transferred into new flat plates. The values of the lysis of the erythrocytes were found by measuring the concentration of hemoglobin in the supernatant with a Multiskan FC microplate photometer (Thermo Fisher Scientific, Waltham, MA, USA); λ = 570 nm. […] All the experiments were carried out in triple repetitions; p < 0.01.

[2] = test system: HL-60 cells; test: Cytotoxic activity (MTS assay); type: cell-based, human; conditions: HL-60, MTS, 24 h; read-out: Cytotoxicity, IC50 HL-60
Experimental: Then, the cells were incubated with 10 µL MTS ([3-(4,5-dimethylthiazol-2-yl)-5-(3-carboxymethoxyphenyl)-2-(4-sulfophenyl)-2H-tetrazolium) for 4 h, and the absorbance in each well was determined at 490/630 nm with a PHERA star FS plate reader (BMG Labtech, Ortenberg, Germany). The experiments were conducted in triplicate.

[3] = test system: HEK293 cells; test: Cytotoxic activity (MTT assay); type: cell-based, human; conditions: HEK293, MTT, 24 h; read-out: Cytotoxicity, IC50 HEK293
Experimental: (§1) After incubation, the glycosides with medium were replaced by 100 μL of fresh medium. Then, 10 μL of MTT (3-(4,5-dimethylthiazol-2-yl)-2,5-diphenyltetrazolium bromide) (Sigma-Aldrich, St. Louis, MO, USA) stock solution (5 mg/mL) was added to each well, followed by incubation of the microplate for 4 h. After this procedure, 100 μL of SDS-HCl solution (1 g SDS/10 mL d-H2O/17 μ[…] HCl) was added to each well and incubated for 18 h. The absorbance of the converted dye formazan was determined with a Multiskan FC microplate photometer (Thermo Fisher Scientific, Waltham, MA, USA) at 570 nm.

[4] = test system: MCF-7 cells; test: Cytotoxic activity (MTT assay); type: cell-based, human; conditions: MCF-7, MTT, 24 h; read-out: Cytotoxicity, IC50 MCF-7
Experimental: as §1

[5] = test system: T-47D cells; test: Cytotoxic activity (MTT assay); type: cell-based, human; conditions: T-47D, MTT, 24 h; read-out: Cytotoxicity, IC50 T-47D
Experimental: as §1

[6] = test system: MDA-MB-231 cells; test: Cytotoxic activity (MTT assay); type: cell-based, human; conditions: for IC50: MDA-MB-231, MTT, 24 h, read-out: Cytotoxicity, IC50 MDA-MB-231
Experimental: as §1

[7] = test system: MDA-MB-231 cells; test: Colony formation (clonogenic) assay; type: cell-based, human; conditions: MDA-MB-231, concentration 0.5 μM
Experimental: The influence of glycosides on the proliferation of MDA-MB-231 cells was analyzed by clonogenic assay. Briefly, MDA-MB-231 cells were cultured on 6-well plates at a density of 1 × 10^3 cells per well in control media (MEM media, 10% FBS, 10,000 U/mL of penicillin and 10,000 μg/mL of streptomycin) or in media supplemented with different concentrations of glycosides. Cells were incubated for one week at 37 °C with 5% CO2 until the cells in the control plates formed colonies that were visible to the eye and were of a substantial size (at least 50 cells per colony). For fixation and staining, the media were removed and the cells were washed twice with PBS. The colonies were fixed with methanol for 25 min, then washed with PBS and stained with 0.5% crystal violet solution for 25 min at room temperature. The plates were then washed with water and air dried.

[8] = test system: MDA-MB-231 cells; test: Wound scratch migration assay; type: cell-based, human; conditions: MDA-MB-231, 0.05 µM, 24 h
Text: To analyze the influence of the tested compounds on tumor cell migration, MDA-MB-231 cells attached to the plate’s plastic bottom were separated by a silicone insert from special migration plates (Culture-insert 2 Well 24, ibiTreat); then, the insert was removed, leaving a gap of 500 ± 50 μm (according to the manufacturer’s data) between the cells. The cells were washed twice by PBS to remove cell debris and floating cells and loaded with a fluorescent probe, a (5,6)-carboxyfluorescein succinimidyl ester (CFDA SE) dye (LumiTrace CFDA SE kit, Lumiprobe, Moscow, Russia). The initial solution of CFDA SE at a concentration of 5 mM in DMSO was dissolved in PBS to prepare a 10 μM solution and was added to the cells for 5 min at 37 °C; then, the cells were washed twice with PBS, and fresh culture medium was added. After that, the cells were treated with various concentrations of glycosides and left for 8 and 24 h. Cells treated with culture medium only were used as control. Cell migration into the wound area was then observed under a fluorescence microscope (MIB-2-FL, LOMO, Saint Peterburg, Russia) with an objective ×10 magnification.

SMILES	ED50, Erythrocytes [1] [µM]	IC50 [2] [µM]	IC50 [3] [µM]	IC50 [4] [µM]	IC50 [5] [µM]	IC50 [6] [µM]	EC50 ([6]; MDA-MB-231, 24 h, read-out: Cytotoxic effect EC50 on MDA-MB-231, 24 h) [µM]	EC50 ([6]; MDA-MB-231, 48 h, read-out: Cytotoxic effect EC50 on MDA-MB-231, 48 h) [µM]	EC50 ([6]; MDA-MB-231, 72 h, read-out: Cytotoxic effect EC50 on MDA-MB-231, 72 h) [µM]	Inhibition of formation and growth of colonies, % of the control [7] [%]	Inhibition of migration in comparison with control [8] [%]
CO[C@@H]1[C@@H](O)[C@H](O[C@@H]2[C@@H](O)[C@H](O[C@H]3[C@H](O)[C@@H](O[C@H]4OC[C@H](O)[C@H](O)[C@@H]4O)[C@H](O[C@H]4[C@H](O[C@H]5CC[C@]6(C)[C@@H]7CC[C@]89C(=O)O[C@@](C)(C[C@@H](O)CC(C)C)[C@H]8[C@@H](OC(C)=O)C[C@@]9(C)C7=CC[C@H]6C5(C)C)OC[C@@H](OS(=O)(=O)O)[C@@H]4O)O[C@@H]3C)OC[C@H]2O)O[C@H](CO)[C@H]1O [frondoside D]	9.22 ± 0.10	18.08 ± 0.08	9.45 ± 0.78	23.2 ± 0.92	11.8 ± 1.1	12 ± 1.28	–	–	–	–	–
COC1C(O)C(CO)OC(OC2C(O)COC(OC3C(C)OC(OC4C(OC5CCC6(C)C7CCC89C(=O)OC(C)(CC(=O)CC(C)C)C8C(OC(C)=O)CC9(C)C7=CCC6C5(C)C)OCC(OS(=O)(=O)[O-])C4O)C(O)C3O)C2O)C1O.[Na+] (centres unmarked) [okhotoside A1-1]	0.75 ± 0.09	2.52 ± 0.26	3.17 ± 0.7	8.34 ± 0.12	8.46 ± 0.65	2.34 ± 0.53	2.34	2.05	1.73	70.76 ± 0.13	74.76 ± 4.41
